Assay results as given in publication PMC10220883, “Relating Molecular Dynamics Simulations to Functional Activity for Gly-Rich Membranolytic Helical Kiadin Peptides” (Pharmaceutics, 2023).
No end group written: not given here.

Experiments:
[1] = test system: Escherichia coli ATCC 25922; set-up: method as in PMID 29553266; details: cited from earlier work; for E. coli MIC: microdilution, Mueller–Hinton broth, 5 × 10^5 CFU/mL, overnight 37 °C, no visual growth; for E. coli MBC: no visible growth on MH agar after 18 h at 37 °C of aliquots from MIC, 2 × MIC, 4 × MIC wells
[2] = test system: Staphylococcus aureus ATCC 25923; set-up: method as in PMID 29553266; details: cited from earlier work; for S. aureus MIC: microdilution, Mueller–Hinton broth, 5 × 10^5 CFU/mL, overnight 37 °C, no visual growth; for S. aureus MBC: no visible growth on MH agar after 18 h at 37 °C of aliquots from MIC, 2 × MIC, 4 × MIC wells
[3] = test system: human red blood cells (RBC); experiment: Haemolytic activity assay; type: cell-based; set-up: key to the marks not given beside the values
Description: Haemolytic activity was previously reported by Roncevic et al. and was evaluated by incubating 0.5% erythrocytes provided by an informed healthy donor with serially diluted peptides in 96-well microtiter plates. Haemoglobin release was monitored at 450 nm. Triton-X was used as a positive control, and the incubation of red blood cells in PBS without peptides was the negative control. A HC50 value was calculated as the concentration causing 50% haemolysis.

[4] = test system: MEC-1 chronic lymphocytic leukaemia cell line; experiment: MTT cytotoxicity assay; type: cell-based, human; set-up: Cytotoxicity MEC-1 (qualitative score): key to the marks not given beside the values; details: for IC50 MEC-1 cells: tested range 5 to 50 µM
Description: Cytotoxicity was also assessed on a human lymphocytic cell line by using the 3-(4,5-dimethylthiazol-2-yl)-2,5-diphenyl tetrazolium bromide (MTT) assay. The MEC-1 chronic lymphocytic leukaemia cell line was kindly provided by Prof. P. Macor (Department of Life Sciences, University of Trieste, IT). MEC-1 cells were cultured in RPMI 1640 complete medium supplemented with 2 mM L-glutamine, 100 U/mL penicillin, 100 µg/mL streptomycin and 10% foetal bovine serum (FBS) and were subcultured two/three times a week for not more than 20 passages. The colorimetric MTT assay was performed to assess the metabolic activity of cells plated onto 96-well culture plates (10^5 cells/well, V^f = 100 µL) that had been exposed to 5 to 50 µM kiadins for 24 h. Twenty microlitres of a stock MTT solution (5 mg/mL) were added to each well after 20 h and left to incubate for the remaining 4 h. The converted MTT dye was then solubilized with acidic isopropanol (0.04 N HCl in absolute isopropanol). Absorbance was measured at 540 and 630 nm using an automated microplate reader (EL311, BIO-TEK® Instruments, Charlotte, VT, USA). All measurements were carried out at least in triplicate. An IC50 value was estimated as the concentration of peptide causing a 50% decrease in viability, calculated using GraphPad Prism software.

[5] = test system: human red blood cells (RBC); details: cited from earlier work; for HC50 (haemolytic activity, text): 0.5% human erythrocytes in PBS
[6] = Surface plasmon resonance binding to immobilized liposomes; details: SPR, L1 chip with DOPC LUVs, PBS, 0.5 to 16 μM peptide, affinity-steady state model; estimated; repeated three times; read-out: KD (equilibrium dissociation constant)
Description: Large unilamellar vesicles (LUVs) were prepared as described by Morgera et al.. Briefly, dry 1,2-dioleoyl-sn-glycero-3-phosphocholine (DOPC) or phosphatidylglycerol:diphosphatidylglycerol (DPPG) was dissolved in chloroform/methanol (2:1) solution, then evaporated using a dry nitrogen stream and vacuum-dried for 24 h. The liposome cake was resuspended in 1 mL of sodium phosphate buffer (SPB) to a concentration of 5 mM phospholipid and spun for 1 h at 40 °C. The vesicles were then subjected to several freeze–thaw cycles before passing through a mini-extruder (Avanti Polar Lipids, Alabaster, AL, USA) with successive polycarbonate filters having 1, 0.4 and 0.1 μm pores before resuspending to a final phospholipid concentration of 0.4 mM. By calculating the surface area of a ∼100 nm liposome and taking into account the average area of a phospholipid headgroup (∼0.7 nm^2) (similar to the value determined in MD simulations), the concentration of the liposomes was estimated to be about 5 nM.
Peptide–membrane interactions were studied using an X-100 instrument (Biacore, GE Lifesciences). LUVs were prepared using DOPC as described above. The extruded unilamellar LUVs were then diluted to result in ~1 mM phospholipid in PBS. The L1 sensor chip was preconditioned and loaded with the LUVs, as described previously. […]

## H-KIGKALGKALKALGKALGKA-NH2 [kiadin-4]
[1]
  E. coli MIC: 8 mM
  E. coli MBC: 16 mM
[2]
  S. aureus MIC: 16 to 32 mM
  S. aureus MBC: 32 mM

## KIAKGALKALKIAKVALKAL-NH2 [kiadin-2]
[3]
  Cytotoxicity RBC (qualitative score): ++
[4]
  Cytotoxicity MEC-1 (qualitative score): ++
[1]
  E. coli MIC: 0.25 to 0.5 mM
  E. coli MBC: 0.5 to 1 mM
[2]
  S. aureus MIC: 8 to 16 mM
  S. aureus MBC: 8 to 16 mM

## H-KIAKVALKALKIAKGALKAL-NH2 [kiadin-1]
[3]
  Cytotoxicity RBC (qualitative score): +++
[4]
  Cytotoxicity MEC-1 (qualitative score): +++
[1]
  E. coli MIC: 0.75 mM
  E. coli MBC: 0.75 mM
[2]
  S. aureus MIC: 0.5 to 1 mM
  S. aureus MBC: 1.5 mM

## H-KIALKALKALKALGKALKAL-NH2 [kiadin-6]
[1]
  E. coli MIC: 1 to 2 mM
  E. coli MBC: 2 to 4 mM
[2]
  S. aureus MIC: 4 mM
  S. aureus MBC: 4 mM

## KIAGKAGKIAKIAGKAGKIA-NH2 [kiadin-5]
[1]
  E. coli MIC: >64 mM
  E. coli MBC: >64 mM
[2]
  S. aureus MIC: >64 mM
  S. aureus MBC: >64 mM
[5]; 0.5% human erythrocytes, up to highest tested concentration
  Haemolytic activity (in words): not to be haemolytic up to the highest tested concentration

## KIAKVALKALKIAKVALKAL-NH2 [diPGLa-H]
[4]; MTT, 24 h
  IC50 MEC-1 cells: 9 ± 3 µM
[6]
  Kd: ~5 µM
[1]
  E. coli MIC: 1.5 mM
  E. coli MBC: 1.5 mM
[2]
  S. aureus MIC: 0.75 mM
  S. aureus MBC: 1.5 mM
[5]
  HC50 (haemolytic activity, text): about 22 μM

## H-KIAKGALKALKIAKGALKAL-NH2 [kiadin-3]
[4]; MTT, 10^5 cells/well, 5 to 50 µM peptide, 24 h, RPMI 1640 with 10% FBS, at least triplicate
  MEC-1 IC50 (concentration causing 50% decrease in viability): >50 µM
[4]; MTT, 24 h
  IC50 MEC-1 cells: > 50 µM
[1]
  E. coli MIC: 4 mM
  E. coli MBC: 16 mM
[2]
  S. aureus MIC: 16 to 32 mM
  S. aureus MBC: 32 mM
[5]
  HC50 (haemolytic activity, text): about 95 μM
